Measurements taken from US20230321127A1, “SPERM MOTILITY IMPROVING AGENT AND SPERM MOTILITY IMPROVING METHOD” (MIRAILAB BIOSCIENCE INC., priority 2020, published 2023).

System: swine sperms
Experiment: Swine sperm motility analyzed by CASA during incubation with NMN alone or NMN+PQQ
Type: cell-based
Experimental: Upon arrival of a pack containing swine diluted semen (sperm concentration (total sperm count) 30,000,000/ml, HIRO-SWINE B solution (HIROSHIMA CRYO-PRESERVATION SERVICE) was used as a diluent) provided by Oita Prefectural Agriculture, Forestry and Fisheries Research Center, the pack was immediately stored in an incubator at 15° C. The next day, 5 ml of the above semen from each pack was transferred to a 15 ml centrifuge tube, NMN was added to concentrations from 0.1 to 100 μM (0.1 μM, 1 μM, 10 μM, 100 μM) using HIRO-SWINE B solution as a culture medium, and they were incubated at 37° C. for up to 6 hours. For some diluted semen, pyrrolo-quinoline quinone (PQQ) (MITSUBISHI GAS CHEMICAL COMPANY, INC) was added to a concentration of 100 nM, in addition to NMN or without the addition of NMN, and it was incubated in the same manner. Sperms were taken out at 0, 2, 4, and 6 hours after the start of incubation, and their sperm motility was analyzed using CASA (HT CASA-Ceros II (product name), Hamilton Thorne, Inc.). […] The error bars in FIG. 2 represent standard errors. Sperm motion loci were also photographed by phase contrast microscopy at 2, 4, and 6 hours after the start of incubation and the photographs were shown in FIG. 3.

[1] = NMN alone addition zone (PQQ-), 0.1-100 μM, effect observed up to 4 hours later
[2] = NMN alone addition zone, 6 hours later

## NC(=O)c1ccc[n+]([C@@H]2O[C@H](COP(=O)([O-])O)[C@@H](O)[C@H]2O)c1 [NMN, nicotinamide mononucleotide]
NMN 0.1-100 μM added to swine diluted semen, 37° C., up to 6 hours
  total moment (proportion of sperms in motion to total sperms counted): not affected
[1]
  straight (forward) moment: significantly increased
  straight (forward) speed: significantly increased
[2]
  improving effect on the straight moment: disappeared
  improving effect on the straight speed: disappeared
